Source: US10508120B2, “TYK2 inhibitors and uses thereof” (Nimbus Lakshmi, Inc., priority 2017, dated 2019)

What was measured:
[1] = biological target: Tyk2 kinase domain (DH1) (Homo sapiens (Human), UniProt P29597); test: Tyk2 Radioactive Kinase Assay; type: biochemical; conditions: compound at 10 μM, ATP 10 μM; for inhibition at 10 µM: read-out: Tyk2 JH1% Inhibition @ 10 μM
Procedure, shortened: (§1)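 Read-out is percent inhibition from a radioactive kinase reaction, measured with compound at 10 μM.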

[2] = biological target: JAK2 kinase domain (JH1) (Homo sapiens (Human), UniProt O60674); test: JAK2 Radioactive Kinase Assay; type: biochemical; conditions: compound at 10 μM, ATP 10 μM; for inhibition at 10 µM: read-out: JAK2 JH1% Inhibition @ 10 μM
Sequence of JAK2 kinase domain (JH1) (O60674 849-1124): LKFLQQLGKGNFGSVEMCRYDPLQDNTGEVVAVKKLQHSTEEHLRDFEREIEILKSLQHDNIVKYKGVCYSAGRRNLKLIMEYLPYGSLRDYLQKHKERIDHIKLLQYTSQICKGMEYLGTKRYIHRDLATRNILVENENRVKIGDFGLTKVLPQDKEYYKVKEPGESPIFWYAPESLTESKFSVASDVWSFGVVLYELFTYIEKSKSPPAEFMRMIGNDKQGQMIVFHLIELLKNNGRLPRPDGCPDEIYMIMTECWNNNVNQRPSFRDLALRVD
Procedure, shortened: as §1

[3] = biological target: human TYK2 (JH2domain-pseudokinase) (Homo sapiens (Human), UniProt P29597); test: TYK2 JH2 Domain Binding Assay (KINOMEscan)
Sequence of human TYK2 (JH2domain-pseudokinase) (P29597 556-888): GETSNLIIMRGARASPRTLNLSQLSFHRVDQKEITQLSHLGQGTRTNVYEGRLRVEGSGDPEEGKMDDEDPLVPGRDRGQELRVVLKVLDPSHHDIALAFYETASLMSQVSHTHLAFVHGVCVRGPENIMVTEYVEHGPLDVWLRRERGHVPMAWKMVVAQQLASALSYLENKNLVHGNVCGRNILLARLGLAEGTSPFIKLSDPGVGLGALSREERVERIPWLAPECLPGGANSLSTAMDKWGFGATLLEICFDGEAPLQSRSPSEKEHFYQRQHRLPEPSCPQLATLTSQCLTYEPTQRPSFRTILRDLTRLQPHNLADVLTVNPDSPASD
Procedure, shortened: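 Pseudokinase domain binding was measured by qPCR of tagged, bead-retained kinase after 1 h room-temperature competition, with 0.9% DMSO and compound up to 30,000 nM in 3-fold steps. Hill-equation Kd, duplicate.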

Sequence of Tyk2 kinase domain (DH1) (P29597 897-1176): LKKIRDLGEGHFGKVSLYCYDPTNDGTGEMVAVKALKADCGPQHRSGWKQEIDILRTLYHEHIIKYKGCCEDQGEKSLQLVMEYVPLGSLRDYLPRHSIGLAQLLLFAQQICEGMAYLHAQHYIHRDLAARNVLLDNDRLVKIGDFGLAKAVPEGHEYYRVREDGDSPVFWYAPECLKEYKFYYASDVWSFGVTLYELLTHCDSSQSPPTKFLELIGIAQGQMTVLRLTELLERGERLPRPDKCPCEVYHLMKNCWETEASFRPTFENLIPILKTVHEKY

Compound | inhibition at 10 µM [1] [%] | inhibition at 10 µM [2] [%] | Kd [3] [nM] | Tyk2 JH1% Inhibition @ 10 μM [1] | JAK2 JH1% Inhibition @ 10 μM [2]
CNc1cc(Nc2cccn([C@H]3CCC[C@@H](OC)C3)c2=O)nc2c(C(=O)NC3CC3)cnn12 [I-622] | < 50 | < 50 | 0.2 to 1 |  | 
CNc1cc(Nc2c(F)ccn(C(C)C)c2=O)nc2c(C(=O)NC3CC3)cnn12 [I-623] | < 50 | < 50 | 1 to 10 |  | 
CNc1cc(Nc2c(F)ccn(-c3nccs3)c2=O)nc2c(C(=O)N[C@H]3C[C@H]3F)cnn12 [I-624] | 70 to 90 | < 50 | 0.2 to 1 |  | 
CNc1cc(Nc2cc(F)cn(C3CCN(C)CC3)c2=O)nc2c(C(=O)NC3CC3)cnn12 [I-625] | < 50 | < 50 | < 0.2 |  | 
CNc1cc(Nc2cc(F)cn(C3CCN(C)CC3)c2=O)nc2c(C(=O)N[C@H]3C[C@H]3F)cnn12 [I-626] | < 50 | < 50 | < 0.2 |  | 
CNc1cc(Nc2cccn([C@H]3CCN(C)C[C@H]3F)c2=O)nc2c(C(=O)NC3CC3)cnn12 [I-627] | < 50 | < 50 | < 0.2 |  | 
CNc1cc(Nc2cccn(C3CCN(CCC#N)CC3)c2=O)nc2c(C(=O)N[C@H]3C[C@H]3F)cnn12 [I-628, -((1-(1-(2-cyanoethyl)piperidin-4-yl)-2-oxo-1,2-dihydropyridin-3-yl)amino)-N-((1R,2S)-2-fluorocyclopropyl)-7-(methylamino)pyrazolo[1,5-a]pyrimidine-3-carboxamide] | < 50 | < 50 | < 0.2 |  | 
CNc1cc(-c2cn(C(C)C)c3ncccc23)nc2c(C(=O)NC3CC4(COC4)C3)cnn12 [I-629, 5-(1-isopropyl-1H-pyrrolo[2,3-b]pyridin-3-yl)-7-(methylamino)-N-(2-oxaspiro[3.3]heptan-6-yl)pyrazolo[1,5-a]pyrimidine-3-carboxamide] | < 50 | < 50 | 0.2 to 1 |  | 
CNc1cc(Nc2ccc3c(n2)CCO3)nc2c(C(=O)NC3CC3)cnn12 [I-631] | < 50 | < 50 | 0.2 to 1 |  | 
CNc1cc(Nc2ccc3c(n2)CCO3)nc2c(C(=O)N[C@H]3C[C@H]3F)cnn12 [I-632] | < 50 | < 50 | < 0.2 |  | 
CNc1cc(Nc2cccn(-c3cnn(C)c3)c2=O)nc2c(C(=O)NCC(C)CO)cnn12 (stereo not drawn) [I-633] | < 50 | < 50 | < 0.2 |  | 
CNc1cc(Nc2cccc([C@H]3CCCOC3)n2)nc2c(C(=O)N[C@@H]3COC[C@@H]3O)cnn12 [I-634] | < 50 | < 50 | < 0.2 |  | 
CNc1cc(-c2cn(C(C)C)c3ncccc23)nc2c(C(=O)N[C@@H]3CC[C@@H]3O)cnn12 [I-638] |  |  | 0.2 to 1 | A (percent inhibition at 10 μM lower than 50) | A (percent inhibition at 10 μM lower than 50)
CNc1cc(Nc2cccc([C@H]3CCCOC3)n2)nc2c(C(=O)N[C@@H]3CC[C@@H]3O)cnn12 [I-641] |  |  | 0.2 to 1 | A (percent inhibition at 10 μM lower than 50) | A (percent inhibition at 10 μM lower than 50)
CNc1cc(Nc2cccc([C@H]3CCCOC3)n2)nc2c(C(=O)N[C@H]3CC[C@H]3O)cnn12 [I-642] | < 50 | < 50 | < 0.2 |  | 
CNc1cc(Nc2cccc([C@@H]3CCCOC3)n2)nc2c(C(=O)N[C@@H]3CC[C@@H]3O)cnn12 [I-643] |  |  | 0.2 to 1 | A (percent inhibition at 10 μM lower than 50) | A (percent inhibition at 10 μM lower than 50)
CNc1cc(Nc2cccc([C@@H]3CCCOC3)n2)nc2c(C(=O)N[C@H]3CC[C@H]3O)cnn12 [I-644] | < 50 | < 50 | < 0.2 |  | 
CNc1cc(Nc2cccc([C@@H]3CCCCO3)n2)nc2c(C(=O)N[C@H]3CC[C@H]3O)cnn12 [I-645] | < 50 | < 50 | 1 to 10 |  | 
CNc1cc(Nc2cccc([C@H]3CCCCO3)n2)nc2c(C(=O)N[C@H]3CC[C@H]3O)cnn12 [I-647] | < 50 | < 50 | < 0.2 |  | 

Compound | inhibition at 10 µM [1] [%] | inhibition at 10 µM [2] [%] | Kd [3] [nM] | Tyk2 JH1% Inhibition @ 10 μM [1] | JAK2 JH1% Inhibition @ 10 μM [2]
CNc1cc(Nc2cccc([C@H]3CCCCO3)n2)nc2c(C(=O)N[C@@H]3CC[C@@H]3O)cnn12 [I-648] |  |  | 0.2 to 1 | A (percent inhibition at 10 μM lower than 50) | A (percent inhibition at 10 μM lower than 50)
CNc1cc(Nc2cccn(C3CCOCC3)c2=O)nc2c(C(=O)NCC(C)CO)cnn12 (stereo not drawn) [I-649] | < 50 | < 50 | < 0.2 |  | 
CNc1cc(Nc2cccn([C@@H]3CCCOC3)c2=O)nc2c(C(=O)N[C@H]3[C@@H]4COC[C@@H]43)cnn12 [I-650] | < 50 | < 50 | 1 to 10 |  | 
CNc1cc(Nc2cccn([C@H]3CCCOC3)c2=O)nc2c(C(=O)N[C@H]3[C@@H]4COC[C@@H]43)cnn12 [I-651] | < 50 | < 50 | > 10 |  | 
CNc1cc(Nc2cccn(C3CCN(CCC#N)CC3)c2=O)nc2c(C(=O)NC3CC3)cnn12 [I-652, 5-((1-(1-(2-cyanoethyl)piperidin-4-yl)-2-oo-1,2-dihydropyridin-3-yl)amino)-N-cyclopropyl-7-(methylamino)pyrazolo[1,5-a]pyrimidine-3-carboxamide] | < 50 | < 50 | < 0.2 |  | 
CNc1cc(Nc2cccn(-c3nc(C)co3)c2=O)nc2c(C(=O)N[C@@H]3CC[C@@H]3O)cnn12 [I-654] | < 50 | < 50 | < 0.2 |  | 
CNc1cc(Nc2cccc(N3CCC4(CCCO4)CC3)n2)nc2c(C(=O)NC3CC3)cnn12 [I-655] | < 50 | < 50 | 0.2 to 1 |  | 
CNc1cc(Nc2cccc(N3CCC4(CCCO4)CC3)n2)nc2c(C(=O)N[C@H]3C[C@H]3F)cnn12 [I-656] | < 50 | < 50 | < 0.2 |  | 
CNc1cc(Nc2cccc(N3CCC4(CCCO4)CC3)n2)nc2c(C(=O)N[C@@H]3CC[C@@H]3O)cnn12 [I-657] | < 50 | < 50 | < 0.2 |  | 
CNc1cc(Nc2cccn3cnnc23)nc2c(C(=O)NC3CC3)cnn12 [I-659] | < 50 | < 50 | < 0.2 |  | 
CNc1cc(Nc2cccn3cnnc23)nc2c(C(=O)N[C@H]3C[C@H]3F)cnn12 [I-660] | < 50 | < 50 | < 0.2 |  | 
CNc1cc(Nc2cccn3cnnc23)nc2c(C(=O)N[C@@H]3CC[C@@H]3O)cnn12 [I-662] | < 50 | < 50 | < 0.2 |  | 
CNc1cc(Nc2cccn(-c3nc(C)co3)c2=O)nc2c(C(=O)NCC(C)CO)cnn12 (stereo not drawn) [I-663] | < 50 | < 50 | < 0.2 |  | 
CNc1cc(Nc2cccn(-c3cnn(C)c3)c2=O)nc2c(C(=O)NC[C@H](C)CO)cnn12 [I-668] | < 50 | < 50 | < 0.2 |  | 
CNc1cc(Nc2cccn(-c3cnn(C)c3)c2=O)nc2c(C(=O)NC[C@@H](C)CO)cnn12 [I-669] | < 50 | < 50 | < 0.2 |  | 
CNc1cc(Nc2cccn([C@@H]3CCCC[C@@H]3O)c2=O)nc2c(C(=O)NC3CC3)cnn12 [I-671] | < 50 | < 50 | < 0.2 |  | 
CNc1cc(Nc2cccn(-c3ncc(OC)cc3F)c2=O)nc2c(C(=O)NC3CC3)cnn12 [I-672] | < 50 | < 50 | < 0.2 |  | 
CNc1cc(Nc2cccn(C3CCOCC3)c2=O)nc2c(C(=O)N[C@@H]3COC[C@@H]3O)cnn12 [I-674] | < 50 | < 50 | 0.2 to 1 |  | 
